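Values below derive from 48-hour exposures of cells grown in 96-well plates, with endpoints linearly interpolated between the two concentrations bracketing the appropriate inhibition level. GI50 is the concentration that inhibits growth by half. At the TGI there is no net growth.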
Legend:
Assay in all cases: growth of human tumour cells (NCI), 48 h
[1] = tested on: 786-0 renal
[2] = tested on: A498 renal
[3] = tested on: A549 NSCLC
[4] = tested on: ACHN renal
[5] = tested on: BT-549 breast
[6] = tested on: CAKI-1 renal
[7] = tested on: CCRF-CEM leukemia
[8] = tested on: COLO 205 colon
[9] = tested on: DU-145 prostate
[10] = tested on: EKVX NSCLC
[11] = tested on: HCC-2998 colon
[12] = tested on: HCT-116 colon
[13] = tested on: HCT-15 colon
[14] = tested on: HL-60(TB) leukemia
[15] = tested on: HOP-62 NSCLC
[16] = tested on: HOP-92 NSCLC
[17] = tested on: HS 578T breast
[18] = tested on: HT29 colon
[19] = tested on: IGROV1 ovarian
[20] = tested on: K-562 leukemia
[21] = tested on: KM12 colon
[22] = tested on: LOX IMVI melanoma
[23] = tested on: M14 melanoma
[24] = tested on: MALME-3M melanoma
[25] = tested on: MCF7 breast
[26] = tested on: MDA-MB-231 breast
[27] = tested on: MDA-MB-435
[28] = tested on: MOLT-4 leukemia
[29] = tested on: NCI-H226 lung
[30] = tested on: NCI-H23 lung
[31] = tested on: NCI-H460 lung
[32] = tested on: NCI-H522 lung
[33] = tested on: NCI/ADR-RES ovarian
[34] = tested on: OVCAR-3 ovarian
[35] = tested on: OVCAR-4 ovarian
[36] = tested on: OVCAR-5 ovarian
[37] = tested on: OVCAR-8 ovarian
[38] = tested on: PC-3 prostate
[39] = tested on: RPMI-8226 leukemia
[40] = tested on: RXF 393 renal
[41] = tested on: SF-268 CNS
[42] = tested on: SF-295 CNS
[43] = tested on: SF-539 CNS
[44] = tested on: SK-MEL-2 melanoma
[45] = tested on: SK-MEL-28 melanoma
[46] = tested on: SK-MEL-5 melanoma
[47] = tested on: SK-OV-3 ovarian
[48] = tested on: SN12C renal
[49] = tested on: SNB-19 CNS
[50] = tested on: SNB-75 CNS
[51] = tested on: SR leukemia
[52] = tested on: SW-620 colon
[53] = tested on: T-47D breast
[54] = tested on: TK-10 renal
[55] = tested on: U251 CNS
[56] = tested on: UACC-257 melanoma
[57] = tested on: UACC-62 melanoma
[58] = tested on: UO-31 renal

CC(=O)ON=C1C=CC(=C(C#N)c2ccccc2)C=C1
GI50 [1]: 1.19 µM | TGI [1]: 14.1 µM | GI50 [2]: 12.6 µM | TGI [2]: 47 µM | GI50 [3]: 3.09 µM | TGI [3]: > 36 µM | GI50 [4]: 0.772 µM | TGI [4]: 14.2 µM | GI50 [5]: 3.9 µM | TGI [5]: 12.5 µM | GI50 [6]: 0.396 µM | TGI [6]: 2.71 µM | GI50 [7]: 0.387 µM | TGI [7]: > 100 µM | GI50 [8]: 6.02 µM | TGI [8]: 19.3 µM | GI50 [9]: 0.704 µM | TGI [9]: 2.86 µM | GI50 [10]: 6.96 µM | TGI [10]: 42.4 µM | GI50 [11]: 11.7 µM | TGI [11]: 32.2 µM | GI50 [12]: 0.283 µM | TGI [12]: 11.5 µM | GI50 [13]: 0.97 µM | TGI [13]: 14.2 µM | GI50 [14]: 1.11 µM | TGI [14]: 4.87 µM | GI50 [15]: 1.63 µM | TGI [15]: 9.16 µM | GI50 [16]: 1.67 µM | TGI [16]: 6.99 µM | GI50 [17]: 3.51 µM | TGI [17]: > 31.3 µM | GI50 [18]: 3.03 µM | TGI [18]: 12.9 µM | GI50 [19]: 1 µM | TGI [19]: 6.9 µM | GI50 [20]: 0.556 µM | TGI [20]: > 45 µM | GI50 [21]: 0.357 µM | TGI [21]: 1.71 µM | GI50 [22]: 0.393 µM | TGI [22]: 5.58 µM | GI50 [23]: 1.89 µM | TGI [23]: 9.9 µM | GI50 [24]: 4.01 µM | TGI [24]: 20.1 µM | GI50 [25]: 0.319 µM | TGI [25]: 12.8 µM | GI50 [26]: 2.63 µM | TGI [26]: > 28.5 µM | GI50 [27]: 0.283 µM | TGI [27]: 2.28 µM | GI50 [28]: 2.86 µM | TGI [28]: > 100 µM | GI50 [29]: 2.88 µM | TGI [29]: 9.36 µM | GI50 [30]: 4.71 µM | TGI [30]: > 47.4 µM | GI50 [31]: 1.51 µM | GI50 [32]: 0.383 µM | TGI [32]: 2.48 µM | GI50 [33]: 0.768 µM | TGI [33]: 4.21 µM | GI50 [34]: 1.03 µM | TGI [34]: 8.41 µM | GI50 [35]: 5.51 µM | TGI [35]: 22 µM | GI50 [36]: 3.22 µM | TGI [36]: 9.28 µM | GI50 [37]: 2.07 µM | TGI [37]: 15 µM | GI50 [38]: 0.476 µM | TGI [38]: 12.3 µM | GI50 [39]: 0.428 µM | TGI [39]: 2.94 µM | GI50 [40]: 2.68 µM | TGI [40]: 11.5 µM | GI50 [41]: 1.21 µM | TGI [41]: 6.33 µM | GI50 [42]: 1.83 µM | TGI [42]: 12.7 µM | GI50 [43]: 0.671 µM | TGI [43]: 11.2 µM | GI50 [44]: 2.19 µM | TGI [44]: 15.6 µM | GI50 [45]: 8.77 µM | TGI [45]: 61.4 µM | GI50 [46]: 2.36 µM | TGI [46]: 17.7 µM | GI50 [47]: 6.41 µM | TGI [47]: > 100 µM | GI50 [48]: 2.49 µM | TGI [48]: 20.9 µM | GI50 [49]: 11.5 µM | TGI [49]: > 57.5 µM | GI50 [50]: 2 µM | TGI [50]: 13.7 µM | GI50 [51]: 0.619 µM | TGI [51]: 16.5 µM | GI50 [52]: 0.452 µM | TGI [52]: 7.76 µM | GI50 [53]: 1.05 µM | TGI [53]: 11.3 µM | GI50 [54]: 2.58 µM | TGI [54]: 9.9 µM | GI50 [55]: 0.622 µM | TGI [55]: 10.5 µM | GI50 [56]: 2.32 µM | TGI [56]: 18.3 µM | GI50 [57]: 3.78 µM | TGI [57]: 25.7 µM | GI50 [58]: 0.576 µM | TGI [58]: 15.6 µM

Reference: PubChem BioAssay (NCI)
